# Laboratory results taken from patent US20030134893A1, “Combination chemotherapy” (priority 1999, published 2003).
# “And” between values parts separate entries of the source, which are not always exact repeats. Identical values can stand only once. Like-named read-outs stand apart in the source and are kept apart here. Marks after values point to notes of the source that are not given here.
# Tests used:
# [1] = Route of elimination of radiolabeled drug, monkeys; type: in vivo; settings: within 24 hours
# Procedure: (§1) Mass balance/route of elimination studies have not been conducted in humans. Animal studies indicate that the principal route of elimination is via renal excretion, with 80% and 62% of radiolabeled drug appearing in the urine of monkeys and rats, respectively, within 24 hours.
# [2] = tested on: LC-12 squamous cell lung carcinoma tumor; assay: in vivo
# Procedure: (§2) Each agent was also evaluated alone, and treatment groups were compared to untreated controls.
# in vivo [3] = settings: female, mouse, in vivo
# Procedure: as §2
# solid tumor = assay: Phase 1 dose-escalation clinical study of CI-994 (solid tumor); type: in vivo, human
# Procedure: In one such study, patients were treated using a dose-escalation scheme that increased both the daily dose and the duration of treatment. The majority of patients had received extensive prior chemotherapy. The maximum-tolerated dose (MTD) was 15 mg/m^2/day when the duration of treatment was 14 consecutive days. To allow more prolonged treatment, lower doses were studied. Using a schedule of 8 weeks of continuous daily therapy, followed by a 2-week ‘drug holiday’, the MTD was 8 mg/m^2/day. […] Blood counts tended to stabilize even with continued treatment and to recover quickly when treatment was stopped.
# [4] = Route of elimination of radiolabeled drug, rats; type: in vivo; settings: within 24 hours
# Procedure: as §1
# in vivo [5] = settings: female, BALB/C, mouse, po
# [6] = tested on: LC-12 Mouse Lung Carcinoma
# [7] = tested on: nonsmall cell lung cancer, renal cell cancer and other cancers; assay: Phase 2 program with CI-994 as a single agent
# [8] = Pharmacokinetics of oral CI-994 in the solid tumor Phase 1 study, incl. food effect; type: in vivo, human; settings: fasted patients
# [9] = tested on: relapsed acute leukemia or other hematologic malignancy; assay: Phase 1 study of CI-994, once daily high-dose 5-day schedule; type: in vivo
# Procedure: An additional Phase 1 study was conducted in patients with relapsed acute leukemia or other hematologic malignancy using a once daily high-dose 5-day dosing schedule. The MTD was 135 mg/m^2/day. […] Hematologic toxicities cannot be assessed in this patient population.
# in vivo [10] = settings: female, mouse, iv
# Procedure: The test mice were obtained from Charles River Laboratories, Wilmington, Mass. On Day 0 of the test, each mouse was surgically implanted (subcutaneously) with a fragment of LC-12 squamous cell lung carcinoma tumor weighing approximately 30 to 60 mg. The tumor fragments were implanted using a 12 gauge trocar. The mice were weighed weekly, and tumor size (width and length in mm) were measured two times each week with standard calipers. Tumor mass for each animal was calculated according to the formula: [formula]
# where “a” is width of the tumor in mm, and “b” is the length in mm. […] Antitumor activity was assessed according to four parameters: (1) partial tumor response (PR); (2) complete tumor response (CR); (3) tumor-free survival (TF); and (4) tumor growth delay (TL). Tumor growth delay is expressed as a T−C value, where T is the median days required for the treatment group tumors to reach a predetermined size (e.g., 750 mg), and C is the median days for the control group tumors to reach this size. From the tumor growth delay value, the net log10 tumor cell kill is calculated as follows:
# where Td is the days for the tumor mass to double, and Rx is the total days of treatment. […] The conversion of the T−C values to log10 cell kill is possible because the Td for tumors regrowing after treatment is approximately the same as that for untreated control mice. […]
# [11] = CI-994 15 mg/kg/day Days 11-15,18-22,25-29
# [12] = CI-994 7.5 mg/kg/day oral Days 8-12,15-19, 22-26
# [13] = CI-994 15.0 mg/kg/day oral Days 8-12,15-19, 22-26
# [14] = CI-994 30.0 mg/kg/day oral Days 8-12,15-19, 22-26
# [15] = CI-994 60.0 mg/kg/day oral Days 8-12,15-19, 22-26
# [16] = CI-994 60.0 mg/kg/day oral Days 8-12,15-19, 22-26, 60 mg/kg/day
# [17] = Carboplatin 30 mg/kg/day Days 11-15
# [18] = Carboplatin 15 mg/kg/day ip Days 8-12
# [19] = Carboplatin 20 mg/kg/day ip Days 8-12
# [20] = Paclitaxel 15 mg/kg/day Days 11-15
smiles,measurement,setting,value
"CC(=O)Nc1ccc(C(=O)Nc2ccccc2N)cc1 [CI-994, 4-acetylamino-N-(2′-aminophenyl)-benzamide]",radiolabeled drug appearing in the urine,[1],80%
same,CR (complete response),[2]; [11],0
same,Net log10 Kill,[2]; [11],−1.3 log10
same,No. Tumor Free (40 days after the last treatment),[2]; [11],0
same,Nonspecific Deaths,[2]; [11],0/10
same,PR (partial response),[2]; [11],0
same,T-C (days to reach 750 mg),[2]; [11],4.6 days
same,complete response rate,[2]; CI-994 60 mg/kg/day (MTD),30%
same,T-C (days to reach 750 mg),"[2]; CI-994 60 mg/kg/day Days 11-15,18-22,25-29",16.2 days
same,% Weight Change,"[2]; mouse, in vivo, 15 mg/kg/day",+4.0%
same,% Weight Change,"[2]; mouse, in vivo, 30 mg/kg/day",13.4%
same,% Weight Change,"[2]; mouse, in vivo, 60 mg/kg/day",16.2%
same,MTD,in vivo [3]; BALB/C,60 mg/kg/day
same,MTD,"solid tumor; 8 weeks of continuous daily therapy, followed by a 2-week drug holiday, patients",8 mg/m^2/day
same,maximum-tolerated dose (MTD),"solid tumor; duration of treatment 14 consecutive days, patients",15 mg/m^2/day
same,cumulative toxicity,"solid tumor; human, in vivo",no evidence of cumulative toxicity
same,dose-limiting toxicity,"solid tumor; human, in vivo",thrombocytopenia or neutropenia
same,other toxicities,"solid tumor; human, in vivo","nausea, vomiting, diarrhea, anorexia, fatigue, mucositis, headache, dehydration, and increases in liver and renal function test values"
same,time of occurrence of the dose-limiting toxicity after the start of therapy,"solid tumor; human, in vivo",≤ 1 month
same,responses,"solid tumor; patients, majority with extensive prior chemotherapy",one partial response in a heavily pretreated patient with NSCLC and a minor response in one patient each with renal cell cancer and NSCLC
same,radiolabeled drug appearing in the urine,[4],62%
same,MTD at 15 days,in vivo [5],60 mg/kg
same,CR (complete response),[6]; [12],2/10
same,Net Log10 Kill,[6]; [12],−1.2 log10
same,No. Tumor Free (Day 71),[6]; [12],2/10
same,No. of Deaths,[6]; [12],0/10
same,PR (partial response),[6]; [12],0/10
same,T-C (days to reach 750 mg),[6]; [12],1.0 days
same,CR (complete response),[6]; [13],1/10
same,Net Log10 Kill,[6]; [13],−1.3 log10
same,No. Tumor Free (Day 71),[6]; [13],1/10
same,No. of Deaths,[6]; [13],0/10
same,PR (partial response),[6]; [13],0/10
same,T-C (days to reach 750 mg),[6]; [13],0.9 days
same,complete responses,[6]; CI-994 30 mg/kg,20%
same,partial responses,[6]; CI-994 30 mg/kg,10%
same,CR (complete response),[6]; [14],2/10
same,Net Log10 Kill,[6]; [14],−0.7 log10
same,No. Tumor Free (Day 71),[6]; [14],2/10
same,No. of Deaths,[6]; [14],0/10
same,PR (partial response),[6]; [14],1/10
same,T-C (days to reach 750 mg),[6]; [14],8.2 days
same,complete responses,[6]; CI-994 60 mg/kg (MTD),50%
same,CR (complete response),[6]; [15],5/10
same,No. of Deaths,[6]; [15],0/10
same,T-C (days to reach 750 mg),[6]; [15],19.4 days
same,No. Tumor Free (Day 71),[6]; [16],5/10
same,PR (partial response),[6]; [16],no partial responses and 0/10
same,antitumor activity,[6]; lower CI-994 doses (below 30 mg/kg),Little antitumor activity
same,% Weight Change,"[6]; mouse, in vivo, po, 7.5 mg/kg/day",+4.4%
same,% Weight Change,"[6]; mouse, in vivo, po, 15 mg/kg/day",+4.9%
same,% Weight Change,"[6]; mouse, in vivo, po, 30 mg/kg/day",+2.0%
same,% Weight Change,"[6]; mouse, in vivo, po, 60 mg/kg/day",−1.5%
same,clinical benefit,[7]; 8 mg/m^2 given orally daily,Clinical benefit has been reported in patients with renal cell cancer
same,dose-limiting toxicity,[7]; 8 mg/m^2 given orally daily,Thrombocytopenia
same,infrequent neurologic adverse events,[7]; 8 mg/m^2 given orally daily,"paresthesias, confusion, and hallucinations"
same,objective responses,[7]; 8 mg/m^2 given orally daily,Objective responses have been seen in patients with nonsmall cell lung cancer
same,dose increases tolerated by some patients,"[7]; oral daily, starting from 8 mg/m^2",10 mg/m^2
same,dose dependence of terminal elimination half-life and apparent clearance rate,[8],independent of the dose administered
same,maximum plasma concentrations with increasing dose levels,[8],less than dose-proportional
same,time to maximum blood level after ingestion,[8]; preliminary results,1 to 2 h
same,half-life,"[8]; human, plasma, preliminary results, read-out: terminal elimination half-life (converted)",~15 h
same,dose-limiting toxicity,[9]; in vivo,acute CNS toxicity manifested as sedation and somnolence
same,other adverse events,[9]; in vivo,"nausea, vomiting, hypotension resulting from dehydration, hypocalcemia, headache, and in one patient each, acute pancreatitis, a pyramidal syndrome characterized by hyperreflexia and bilateral Babinski reflexes, and sepsis"
same,MTD,"[9]; once daily high-dose 5-day dosing schedule, patients",135 mg/m^2/day
same,tumor lysis syndrome,[9]; patients with AML,"Two patients with AML developed tumor lysis syndrome, resulting in one death"
"N.N.O=C([O-])C1(C(=O)[O-])CCC1.[Pt+2] [Carboplatin, carboplatin, reference compound]",% Weight Change,[2]; [17],−3.9%
same,Net log10 Kill,[2]; [17],0.3 log10
same,No. Tumor Free (40 days after the last treatment),[2]; [17],0
same,Nonspecific Deaths,[2]; [17],0/10
same,T-C (days to reach 750 mg),[2]; [17],6.9 days
same,MTD of carboplatin,[2]; given alone,30 mg/kg
same,% Weight Change,[6]; [18],−2.0%
same,CR (complete response),[6]; [18],1/10
same,Net Log10 Kill,[6]; [18],+0.3 log10
same,No. Tumor Free (Day 71),[6]; [18],0/9
same,No. of Deaths,[6]; [18],1/10^h
same,PR (partial response),[6]; [18],no partial responses and 0/10
same,T-C (days to reach 750 mg),[6]; [18],8.3 days
same,% Weight Change,[6]; [19],−5.5%
same,CR (complete response),[6]; [19],2/10
same,Net Log10 Kill,[6]; [19],+0.1 log10
same,No. Tumor Free (Day 71),[6]; [19],2/10
same,No. of Deaths,[6]; [19],0/10
same,PR (partial response),[6]; [19],1/10
same,T-C (days to reach 750 mg),[6]; [19],5.9 days
same,complete responses,[6]; carboplatin 20 mg/kg (MTD),20%
same,partial responses,[6]; carboplatin 20 mg/kg (MTD),10%
same,complete responses,[6]; carboplatin at 75% of its MTD (15 mg/kg),Ten percent
same,MTD of carboplatin,"[6]; ip, once a day, for 5 days",20 mg/kg
"CC(=O)O[C@H]1C(=O)[C@@]2(C)[C@H]([C@H](OC(=O)c3ccccc3)[C@]3(O)C[C@H](OC(=O)[C@H](O)[C@@H](NC(=O)c4ccccc4)c4ccccc4)C(C)=C1C3(C)C)[C@]1(OC(C)=O)CO[C@@H]1C[C@@H]2O [Taxol, paclitaxel, reference compound]",Net log10 Kill,[2]; [20],0.0 log10
same,No. Tumor Free (40 days after the last treatment),[2]; [20],0
same,Nonspecific Deaths,[2]; [20],0/10
same,T-C (days to reach 750 mg),[2]; [20],3.7 days
same,MTD,in vivo [3]; 15 mg/kg,15 mg/kg
same,MTD,in vivo [10],20 mg/kg/day
